Data on 1 compound can be found in ChEMBL document CHEMBL3639188, “Tyrosine kinase inhibitors” (2014).

In this assay the target is High affinity nerve growth factor receptor (Homo sapiens, UniProt P04629). The assay is described as follows: In Vitro Kinase Activity Assay: Compounds to be tested were dissolved in 100% DMSO in a range of concentrations from 10^-8 to 10^-3 M including negative control (DMSO), then diluted with Kinase Buffer (50 mM HEPES, pH 7.5, 1 mM EGTA, 10 mM MgCl2, 0.01% Tween-20, and 2 mM DTT, added fresh) to 4x the final concentration. The final curve included 11 concentrations (10^-11 to 10^-5 M) plus negative ….
High affinity nerve growth factor receptor, sequence (P04629 whole entry): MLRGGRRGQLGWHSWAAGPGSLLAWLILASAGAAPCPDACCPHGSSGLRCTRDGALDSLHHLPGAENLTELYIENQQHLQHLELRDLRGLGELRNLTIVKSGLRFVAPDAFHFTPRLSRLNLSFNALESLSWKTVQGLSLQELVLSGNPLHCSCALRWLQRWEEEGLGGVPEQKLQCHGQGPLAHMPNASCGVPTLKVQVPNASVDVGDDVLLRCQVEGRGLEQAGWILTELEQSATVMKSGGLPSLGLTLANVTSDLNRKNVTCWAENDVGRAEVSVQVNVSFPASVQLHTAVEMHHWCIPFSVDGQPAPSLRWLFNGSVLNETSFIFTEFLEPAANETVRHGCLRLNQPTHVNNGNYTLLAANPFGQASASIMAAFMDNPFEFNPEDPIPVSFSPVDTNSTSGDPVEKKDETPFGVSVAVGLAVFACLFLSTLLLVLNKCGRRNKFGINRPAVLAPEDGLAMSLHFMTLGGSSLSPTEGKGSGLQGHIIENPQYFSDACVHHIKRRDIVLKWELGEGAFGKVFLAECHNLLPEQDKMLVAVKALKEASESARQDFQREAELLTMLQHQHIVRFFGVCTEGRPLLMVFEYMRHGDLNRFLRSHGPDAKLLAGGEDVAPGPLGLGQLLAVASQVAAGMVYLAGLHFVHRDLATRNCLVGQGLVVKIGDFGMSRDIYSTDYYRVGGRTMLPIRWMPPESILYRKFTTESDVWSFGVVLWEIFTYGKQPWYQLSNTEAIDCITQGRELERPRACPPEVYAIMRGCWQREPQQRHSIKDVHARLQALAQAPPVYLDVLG

Take `CC(Cc1cc(F)ccc1F)Nc1cc[nH]c(=O)c1-c1nc2cc3c(cc2[nH]1)C(=O)N(C1CCN(C)CC1)C3=O` (stereo unspecified): the IC50 was determined as 6.35 nM.
